For test [1], the system named is phospho-c-MYC in KPUM-UH1 cells. The test is described as follows: Western blot analysis of c-MYC. Type of test: cell-based. Particulars: KPUM-UH1 double-hit lymphoma cell line. The method, then:
c-MYC levels were analyzed in KPUM-UH1 cells via western blot for 9-ING-41 alone and the combination of 9ING-41 with either Venetoclax or BAY-1143572. Around 10 million cells were spun down at 200 rcf for 5 minutes and rinsed once with PBS before lysing in 50 μl of Millipore Milliplex MAP lysis buffer supplemented with protease and phosphatase inhibitors (Roche). Protein denatured in 4× sample buffer supplemented with β-mercaptoethanol (Bio-Rad) was loaded per well. Bio-Rad stain-free Criterion 4-20% precast gels were used. After running the gel at 140 volts for 90 minutes, Bio-Rad gel imager was used to activate the stain-free technology to visualize the total protein levels loaded in the gel. A nitrocellulose turbo-transfer pack and system (Bio-Rad) was then used to transfer the proteins to the membrane, and 5% w/v dry milk in Tris-buffered saline-0.1% Tween 20 (TBS-T) was used to block the membranes for 1 hour. Membranes were then incubated with the primary antibody diluted in 5% BSA in TBS-T overnight. Membranes were then rinsed in TBS-T 3 times (one 15 minute wash and two 5 minutes washes) and then incubated with the corresponding secondary antibody-conjugated with HRP for 1 hour and rinsed with TBS-T as before. […] Quantification of the band intensities were performed using Image J software (NIH).
On the technique in general: A western blot detects proteins with antibodies after separation by electrophoresis.

Test [2] has as its system GSK3β localization in Jeko cells. The experiment in a line: Immunofluorescence staining for GSK3β localization. In kind it is cell-based, human. Particulars: 9-ING-41 treated Jeko cells.
Description: (B) A close-up (magnification) image of that shown in (A). […] (L) A close-up image of a mitotic cell shown in (K). (M) An overlay image showing the microtubule structure by α-tubulin (red) staining and DNA (in blue). (N) A close-up image of that shown in (M). […] (R) A close-up image of a representative mitotic cell shown in (Q). All other immunostainings of GSK3β and α-Tubulin on cytospin preparations of lymphoma cells were fixed with 4% paraformaldehyde in PBS for 15 min at room temperature followed by permeabilization and the same staining steps as above. The cells were analyzed and imaged on a conventional Zeiss microscope or a Zeiss LSR 780 confocal microscope. To determine the intracellular localization of GSK3β in mitotic cells, GSK3β localization in normal mitotic Jeko cells was analyzed. […] The localization of GSK3β in 9-ING-41 treated Jeko cells (FIG. 8Q-R) was determined.
The next test relates to SU-DHL6. The experiment in a line: Proliferation assay (thymidine uptake). Type of test: cell-based. Particulars: Homo sapiens, SU-DHL-6; SU-DHL6 (DLBCL), 48 hours then thymidine pulse; read-out: IC50 (μM) on Cell proliferation. The method, then:
(§1) Cells were seeded at 1×10^4 cells/well in 96 well plates, and incubated with 9-ING-41 at indicated concentrations for 48 hours followed by pulsing with tritium labeled thymidine for overnight before being analyzed for thymidine uptake.
(§2) The IC50S of 9-ING-41 on cell survival and proliferation was calculated using an on-line IC50 calculation tool (https://www.aatbio.com/tools/ic50-calculator/).
(§3) 9-ING-41 can specifically induce lymphoma cell apoptosis without affecting normal lymphocytes. The thymidine incorporation assay in the presence or absence of 9-ING-41 was performed to test the role of GSK3 in lymphoma cell proliferation. […] The DLBCL lines required slightly higher concentrations. The IC50 of 9-ING-41 on cell proliferation for various lymphoma cell lines was calculated (Table 1).

In the next test the test system is OCI-Ly3. The test is described as follows: Proliferation assay (thymidine uptake). In kind it is cell-based. Particulars: Homo sapiens; OCI-Ly3 (DLBCL), 48 hours then thymidine pulse; read-out: IC50 (μM) on Cell proliferation. The protocol:
as §1, §2, §3

A further test deals with Mino. The experiment in a line: Proliferation assay (thymidine uptake). Type of test: cell-based. Particulars: Homo sapiens; Mino (MCL), 48 hours then thymidine pulse; read-out: IC50 (μM) on Cell proliferation. The method, then: as §1, §2, §3
Another test relates to Granta-519. The test is described as follows: Proliferation assay (thymidine uptake). In kind it is cell-based. Particulars: Homo sapiens; Granta-519 (MCL), 48 hours then thymidine pulse; read-out: IC50 (μM) on Cell proliferation. The protocol:
as §1, §2, §3

The subject of a further test is Jeko. The experiment in a line: Proliferation assay (thymidine uptake). In kind it is cell-based. Particulars: Homo sapiens; Jeko (MCL), 48 hours then thymidine pulse; read-out: IC50 (μM) on Cell proliferation. The protocol: as §1, §2, §3
The test system of another test is OCI-LY19. The test is described as follows: Proliferation assay (thymidine uptake). Type of test: cell-based. Particulars: Homo sapiens; OCI-LY19 (DLBCL), 48 hours then thymidine pulse; read-out: IC50 (μM) on Cell proliferation. The protocol:
as §1, §2, §3

The subject of another test is Karpas-299. The test is described as follows: Proliferation assay (thymidine uptake). Type of test: cell-based. Particulars: Homo sapiens; Karpas-299 (TCL), 48 hours then thymidine pulse; read-out: IC50 (μM) on Cell proliferation. The method, then:
as §1, §2, §3

The next test has as its system SeAx. The experiment in a line: Proliferation assay (thymidine uptake). Type of test: cell-based. Particulars: Homo sapiens; SeAx (TCL), 48 hours then thymidine pulse; read-out: IC50 (μM) on Cell proliferation. The method, then:
as §1, §2, §3

Another test relates to OCI-LY1. The test is described as follows: Proliferation assay (thymidine uptake). Type of test: cell-based. Particulars: Homo sapiens; OCI-LY1 (DLBCL), 48 hours then thymidine pulse; read-out: IC50 (μM) on Cell proliferation. The method, then:
as §1, §2, §3

`Cn1cc(C2=C(c3coc4ccc(F)cc34)C(=O)NC2=O)c2cc3c(cc21)OCO3` [9-ING-41, 3-(5-Fluorobenzofuran-3-yl)-4-(5-methyl-5H-[1,3]dioxolo[4,5-f]indol-7-yl)pyrrole-2,5-dione]: the “Effect on phospho-c-MYC” value in test [1] is “phospho-c-MYC is modified”. The “Effect on localization of GSK3β” value in [2] was “did not alter the localization of GSK3β”. Also, the IC50 with SU-DHL6 was 0.84 µM; in the test with OCI-Ly3, 1.03 µM; in the test on Mino, 0.72 µM; with Granta-519, 0.38 µM; with Jeko, 0.94 µM; with OCI-LY19, 1.96 µM. The IC50 was found to be 0.26 µM in the test on Karpas-299, 0.38 µM in the test with SeAx and 0.69 µM in the test with OCI-LY1.

(Values after patent US11980607B2, “Methods of treating malignant lymphoproliferative disorders” (Actuate Therapeutics Inc., priority 2018, dated 2024).)
